# Experimental data from patent publication US20220324865A1 (Bayer Aktiengesellschaft, priority 2018, published 2022).
# pIC50: −log10 of the molar value.
# Biological target: T1, human EP3 receptor (Homo sapiens, UniProt P43115)
# T1 construct: expressed in transfected cells; host or cells: CHO K1 (Chinese Hamster Ovary), stably co-transfected with Galpha16 and mitochondrial clytin
# T1 sequence (P43115 1-390): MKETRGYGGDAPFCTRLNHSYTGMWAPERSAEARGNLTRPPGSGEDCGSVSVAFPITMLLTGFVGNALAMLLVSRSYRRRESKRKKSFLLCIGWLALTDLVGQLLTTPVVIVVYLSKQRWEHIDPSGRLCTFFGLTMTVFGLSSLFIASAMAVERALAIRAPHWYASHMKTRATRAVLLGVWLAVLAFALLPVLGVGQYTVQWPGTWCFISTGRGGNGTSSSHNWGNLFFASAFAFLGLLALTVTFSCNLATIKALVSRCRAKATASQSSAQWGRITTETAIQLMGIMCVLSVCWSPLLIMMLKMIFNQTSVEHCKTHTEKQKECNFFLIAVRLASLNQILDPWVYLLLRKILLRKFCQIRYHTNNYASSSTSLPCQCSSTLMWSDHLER
# Experiment: Cellular in vitro assay for determining EP3 receptor activity (human EP3 cell line, sulprostone-stimulated calcium luminescence)
# Format: cell-based
# Conditions: CHO cells expressing human EP3 and mitochondrial Clytin; antagonist mode, sulprostone at EC50; read-out: EP3 CHO mtCLY ANTAG IC50
# Outline: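 CHO K1 cells stably expressing human EP3 with Gα16 and mitochondrial Clytin, loaded overnight with coelenterazine. Compounds added 10 min before sulprostone at its EC50; antagonism read immediately as reduced calcium-driven luminescence, quadruplicate points.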
row,Compound,pIC50
1,"N#Cc1c(C(=O)NC2(c3ccc(Cl)cc3)CCC2)nn2cc(-c3ccc4ccccc4c3)[nH]c(=O)c12 [Example 3-62, N-[1-(4-Chlorophenyl)cyclobutyl]-3-cyano-6-(naphthalen-2-yl)-4-oxo-4,5-dihydropyrazolo[1,5-a]pyrazine-2-carboxamide]",8.40
2,"COc1ccc([C@H](CCO)NC(=O)c2nn3cc(-c4ccc5ccccc5c4)[nH]c(=O)c3c2C#N)cc1 [Example 3-63, 3-Cyano-N-[(1S)-3-hydroxy-1-(4-methoxyphenyl)propyl]-6-(naphthalen-2-yl)-4-oxo-4,5-dihydropyrazolo[1,5-a]pyrazine-2-carboxamide]",8.41
3,"Cc1c(C(=O)NCc2ccncc2)nn2c(C)c(-c3ccc4ccccc4c3)[nH]c(=O)c12 [Example 3-64, 3,7-Dimethyl-6-(naphthalen-2-yl)-4-oxo-N-[(pyridin-4-yl)methyl]-4,5-dihydropyrazolo[1,5-a]pyrazine-2-carboxamide]",8.36
4,"Cc1c(C(=O)N[C@@H](C)c2cnccn2)nn2c(C)c(-c3ccc4ccccc4c3)[nH]c(=O)c12 [Example 3-66, 3,7-Dimethyl-6-(naphthalen-2-yl)-4-oxo-N-[(7S)-1-(pyrazin-2-yl)ethyl]-4,5-dihydropyrazolo[1,5-a]pyrazine-2-carboxamide]",8.13
5,"Cc1c(C(=O)NCc2ccccn2)nn2c(C)c(-c3ccc4ccccc4c3)[nH]c(=O)c12 [Example 3-70, 3,7-Dimethyl-6-(naphthalen-2-yl)-4-oxo-N-[(pyridin-2-yl)methyl]-4,5-dihydropyrazolo[1,5-a]pyrazine-2-carboxamide]",8.26
6,"Cc1c(C(=O)N[C@@H](CO)c2ccccc2)nn2c(C)c(-c3ccc4ccccc4c3)[nH]c(=O)c12 [Example 3-71, N-[(1R)-2-Hydroxy-1-phenylethyl]-3,7-dimethyl-6-(naphthalen-2-yl)-4-oxo-4,5-dihydropyrazolo[1,5-a]pyrazine-2-carboxamide]",8.02

# Now those with a higher pIC50, led by results:
row,pIC50,Compound
1,8.70,"CC[C@@H](NC(=O)c1nn2cc(-c3ccc4ccccc4c3)[nH]c(=O)c2c1C#N)c1ccccc1 [Example 3-61, 3-Cyano-6-(naphthalen-2-yl)-4-oxo-N-[(1R)-1-phenylpropyl]-4,5-dihydropyrazolo[1,5-a]pyrazine-2-carboxamide]"
2,8.70,"Cc1c(C(=O)N[C@H](C)c2ccccc2)nn2c(C)c(-c3ccc4ccccc4c3)[nH]c(=O)c12 [Example 3-65, 3,7-Dimethyl-6-(naphthalen-2-yl)-4-oxo-N-[(1R)-1-phenylethyl]-4,5-dihydropyrazolo[1,5-a]pyrazine-2-carboxamide]"
3,8.69,"Cc1c(C(=O)N[C@H]2c3ccccc3C[C@H]2O)nn2c(C)c(-c3ccc4ccccc4c3)[nH]c(=O)c12 [Example 3-67, N-[(7S,2R)-2-Hydroxy-2,3-dihydro-1H-inden-1-yl]-3,7-dimethyl-6-(naphthalen-2-yl)-4-oxo-4,5-dihydropyrazolo[1,5-a]pyrazine-2-carboxamide]"
4,8.73,"Cc1c(C(=O)NC(CCO)c2ccccc2Cl)nn2c(C)c(-c3ccc4ccccc4c3)[nH]c(=O)c12 (stereo not drawn) [Example 3-68, N-[1-(2-Chlorophenyl)-3-hydroxypropyl]-3,7-dimethyl-6-(2-naphthyl)-4-oxo-5H-pyrazolo[1,5-a]pyrazine-2-carboxamide]"
5,8.60,"Cc1c(C(=O)NC(CO)c2ccc(Br)cc2)nn2c(C)c(-c3ccc4ccccc4c3)[nH]c(=O)c12 (stereo not drawn) [Example 3-69, N-[1-(4-Bromophenyl)-2-hydroxyethyl]-3,7-dimethyl-6-(2-naphthyl)-4-oxo-5H-pyrazolo[1,5-a]pyrazine-2-carboxamide]"
6,8.68,"Cc1c(C(=O)NC(c2cccc(F)c2)C(F)F)nn2c(C)c(-c3ccc4ccccc4c3)[nH]c(=O)c12 (stereo not drawn) [Example 3-72, N-[2,2-Difluoro-1-(3-fluorophenyl)ethyl]-3,7-dimethyl-6-(2-naphthyl)-4-oxo-5H-pyrazolo[1,5-a]pyrazine-2-carboxamide]"
